In US8173133B2, “Acyl pseudodipeptides which carry a functionalized auxiliary arm” (OM Pharma, priority 1999, dated 2012):
In brackets after ≈: the same amount, converted by molar mass.

Columns and labels:
bone marrow stem cells = assay: bone marrow stem cell proliferation (XTT); type: cell-based, C57/BL6 mice
Procedure, shortened: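 Marrow cells from 6-week-old male C57/BL6 mice (suspension 500000 cells/ml, DMEM + 20% FCS) were incubated 7 days at 37° C, 8% CO2, with serially diluted products in triplicate. XTT/PMS […] over 8 h was read at 492 nm (690 nm reference). EC50 is the concentration at 50% of maximum amplitude; Min is the lowest concentration exceeding blank ±3 SD.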

[1] = system: predendritic cells (DC-6); assay: dendritic cell differentiation test: FITC-Dextran take-up; type: cell-based, human; conditions: 10 μg/ml
Description: The ability of products of the invention to induce maturation of predendritic cells into dendritic cells was assessed. The following parameters were measured: FITC-Dextran conjugate take-up and expression of CD83, CD86 surface markers.
Mononucleated cells of peripheral blood are isolated from buffy coats of healthy donors. Purified monocytes by adherence selection are resuspended in RPMI-1640 medium containing 10% of foetal calf serum (FCS), GM-CSF and IL-4 (10 ng/ml) at a density of 1×10^6 cells/ml. Cells are divided into Petri Dishes (10×10^6 cells per dish) and cultured for 6 days with a change to fresh medium after 3 days. Cells thus obtained are called predendritic cells (DC-6). Maturation of predendritic cells into mature dendritic cells is achieved by incubating cells with diluted solutions of the products or LPS (positive control) for 3 more days (see product section below). At day 9 (DC-9), cells are harvested and analyzed for different indicators of dendritic cell maturation: assessment of CD83, CD86 surface marker expression as well as of their ability to take up FITC-Dextran conjugate. All these parameters are analyzed by an EPICS-XL-MCL model FACS (Coulter Immunology, Hialeah, […]).
Expression of surface markers is given as % of mean fluorescence of LPS-activated cells (positive control); FITC-Dextran conjugate take-up rate is calculated based on take-up of cells maintained in basic medium and is expressed in %.
Solutions are incubated at 37° C. for 20 minutes, subjected to vigorous stirring during 3 minutes and then diluted to 100 μg/ml in RPMI-1640 culture medium and used in diluted state at concentrations ranging from 10 μg/ml to 0.03 μg/ml. Reference Product: E. coli lipopolysaccharide (LPS, DIFCO, Detroit, Mich., U.S.A.), as a 5 mg/ml stock solution in PBS. An intermediate 100 μg/ml solution is prepared in RPMI 1640 culture medium. Concentrations of dilute solutions being tested range from 1 μg/ml to 0.03 μg/ml.
In another series of experiments, all acyl dipeptide-like compounds were freeze-dried and directly redissolved into pyrogen-free water. Different products as well as LPS control are tested at a concentration of 10 μg/ml. Results are given as % of dendritic cells and mean fluorescence value for dextran phagocytosis or CD86 surface marker expression.
Immature dendritic cells (DC-6) resulting from monocyte differentiation, through the joint action of GM-CSF and IL-4, are able to incorporate FITC-Dextran conjugate. During the maturation process, cells lose their ability to incorporate the FITC-Dextran conjugate. Assays are conducted upon reaching the DC-9 differentiation stage.

[2] = system: human peripheral blood mononuclear cells; assay: α TNF production by human peripheral blood mononuclear cells; type: cell-based; conditions: 18 hours
Procedure, shortened: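 Ficoll-isolated PBMC from 6 healthy donors (2×10^6 viable cells/ml, RPMI-1640, 10% FCS) exposed in triplicate for 18 h at 37 °C, 5% CO2 to compounds diluted 100-, 10- or 1-fold. Secreted TNF-α measured by chemiluminescent ELISA on 4-fold diluted supernatants against a 0.7–7000 pg/ml standard curve; values in pg/ml.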

[3] = system: Limulus Amoebocyte Lysate

CCCCCCCCCCCC(=O)O[C@H](CCCCCCCCCCC)CC(=O)N[C@H](CC(=O)O)C(=O)NCCC[C@H](COC(=O)CCC(=O)O)NC(=O)C[C@H](O)CCCCCCCCCCC [OM-197-MC-Succ]
Max amplitude (bone marrow stem cells; 7 days, XTT 492 nm): 2.16 O.D | Min amplitude (bone marrow stem cells; blank ± 3× standard deviation): 0.80 O.D | Max concentration (bone marrow stem cells; concentration at maximum amplitude): 50 µg/mL | EC50 conc (bone marrow stem cells; concentration corresponding to 50% of maximum amplitude): 24.7 µg/mL (≈ 25.5 µM) | Min concentration (bone marrow stem cells; lowest concentration inducing a significant proliferation): 2.95 µg/mL | Dextran % CD ([1]; products redissolved in pyrogen-free water, % of dendritic cells): 35.5% | Dextran Fluorescence ([1]; mean fluorescence value): 3.0 | α TNF produced ([2]; product 1 μg/ml): 0 pg/mL | α TNF produced ([2]; product 10 μg/ml): 96 pg/mL | α TNF produced ([2]; product 100 μg/ml): 176 pg/mL | LAL EU/mg of product [3]: 5.3 EU/mg of product | LAL ng of LPS equivalent per mg of product [3]: 0.42 ng of LPS equivalent per mg of product
